Literature values, collected in US5093322A, “Tick-derived amblyommin and method of antithrombin therapy” (Hoechst Aktiengesellschaft, priority 1988, dated 1992).

Tests used:
[1] = tested on: thrombin
[2] = in vivo

## hirudin
[1]
  thrombin inhibition, specificity: highly specific thrombin inhibitor
[2]
  half-life: relatively short half-life
